Test results as given in patent publication US11872262B2, “Means and methods for treating bacterial infections” (VIB VZW, priority 2017, dated 2024).
Values after ≈ are worked out from the molar mass of the structure shown. Where two headings read alike, the source gives them in different places. Residues, ends and D or L forms follow the SMILES beside them.

How the values were obtained:
[1] = system: E. coli K-12 BW25113 strain (KEIO collection); type: cell-based, Escherichia coli
Experimental: (§1) The MICs of active peptides were determined via the Broth microdilution assay according to the EUCAST guideline, which were performed in 96-well polystyrene flat-bottom microtiter plates (BD Biosciences). Briefly, a single colony was inoculated into 5 mL LB medium and grown to the end-exponential growth phase in a shaking incubator at 37° C. Cultures were subsequently diluted to an OD600 of 0.002 ([…]) in fresh LB medium. 100 μL of LB medium with different concentration of peptides ranging from 100 μg/mL to 1 μg/mL were serially diluted to the sterile 96-well plate (at least 3 wells in each plate). Afterward, 100 μL of the diluted bacteria were pipetted into 96-well plates containing different concentration of peptides. In each plate, the grown bacteria with maximum concentration of carrier and medium were considered as positive and negative controls, respectively. Thereafter, 96-well plates was statically incubated overnight at 37° C. to allow bacterial growth. A multipurpose UV/VIS plate reader at OD590 nm, 1 s shaking measured the absorbance of the growth bacteria using a Perkin Elmer spectrophotometer (1420 Multilabel Counter Victor 3).

E. coli O157 = type: cell-based, Escherichia coli; conditions: E. coli 0157 (Table 2)
Experimental: as §1

Acinetobacter baumanii = type: cell-based
Experimental: (§2) Gram negative bacterial strains were cultivated in Luria-Bertani (LB) broth (Difco) and gram positive bacteria strains were grown in a rich medium, brain heart infusion (BHI) broth (Difco, Sparks, MD) at 37° C. Whenever required, growth media were supplemented with appropriate antibiotic to the medium or plates. Escherichia coli DH5α was used for cloning and plasmid amplification. […] Bacterial CFU counting was done on blood agar plates (BD Biosciences). Species identification and antibiograms for all clinical isolates were performed using MALDI-TOF and VITEK® 2 automated system (bioMérieux).
as §1

[2] = system: Acinetobacter radioresistens; type: cell-based
Experimental: as §2, §1

[3] = system: Enterobacter cloacae LMG2783T; type: cell-based
Experimental: as §2, §1

[4] = system: Klebsiella pneumoniae (ATCC 1388); type: cell-based
Experimental: as §2, §1

Neisseria = type: cell-based
Experimental: as §2, §1

Pseudomonas aeruginosa = type: cell-based
Experimental: as §2, §1

[5] = system: Staphylococcus aureus MRSA326; type: cell-based
Experimental: as §2, §1

[6] = Solubility of peptide after ultracentrifugation; type: physicochemical; conditions: 30 min after dissolving
Experimental: FIG. 1: Activity, cytotoxicity and aggregation of antibacterial aggregating peptides. (A) Time-killing curve of selected peptides against E. coli strain O157 treated at MIC concentration (average and s.d. of 3 replicates). (B, C, D) Transmission electron microcopy (TEM) of cross-sections of E. coli O157 embedded in resin. B is mock treated, C is P2- and D is P105-treated E. coli O157 (2 h). […] (F) Concentration-dependent hemolysis of human erythrocytes by selected peptides (average and s.d. of 3 replicates). (G) Cytoxicity of Colpeptin1 to human HeLa cells measured by CellTiter Blue assay (average and s.d. of 3 replicates) and (H) by LDH release assay (average and s.d. of 3 replicates). […] Data are from a single experiment that was replicated 3 times (J) Histogram of the size distribution of particles calculated from the DLS data recorded of freshly dissolved colpeptin1 using a linear polymer as particle model. […] (M) Fluorescence intensity of the amyloid-specific dye pFTAA added to preparation of colpeptin1, normalised to the intensity observed with amyloid fibrils of the Alzheimer beta-peptide at the same concentration in monomeric units (average and s.d. of 3 replicates). […] (0) Aggregation kinetics of Colpeptin1 monitored by pFTAA fluorescence in the presence of 1 mM hexaphosphate (average and s.d. of 4 replicates). […]

HeLa cells = assay: In vitro mammalian cytotoxicity (LDH release, CellTiter Blue); type: cell-based, human
Experimental: Mammalian cytotoxicity was measured using the LDH release (Roche, Mannheim, Germany) and CellTiter Blue (Promega) methods. Briefly, HeLa cells (obtained from Bart De Strooper lab, tested to be mycoplasma free) were seeded in 96-well round bottom plates at a concentration of 3×10^5 cells/mL in Dulbecco's Modified Eagle's Medium and treated by different concentrations of peptides. Cells treated with 1% Triton™ X-100 and vehicle were considered as positive and negative controls, respectively. Micro-plates were incubated at 37° C., 5% CO2 and 90% humidity for 4 hours. The micro-plate was centrifuged at 1350 rpm for 10 minutes. 100 μL of supernatant was transferred into clear 96-well flat bottom microplates. In order to determine LDH activity in the supernatants, 100 μl reaction mix (catalyst and dye solution) were added to each well and incubated for 30 min at RT in the dark and the LDH reaction was stopped by adding 100 ul of the Stop solution. The absorbances of the samples were measured at 490 nm. The cell viability was calculated using the formula: (exp. value−negative control value)/(positive control value−negative control value)*100. The amount of absorbance is proportional to the number of living cells and corresponds to the cells' metabolic activity.

For CC(C)C[C@H](NC(=O)CNC(=O)[C@H](CCCNC(=N)N)NC(=O)[C@@H]1CCCN1C(=O)[C@H](CCCNC(=N)N)NC(=O)[C@H](CCCNC(=N)N)NC(=O)[C@@H](NC(=O)[C@H](CC(C)C)NC(=O)[C@H](C)NC(=O)[C@H](CC(C)C)NC(=O)CNC(=O)[C@H](CC(C)C)NC(=O)CNC(=O)[C@@H](N)CCCNC(=N)N)C(C)C)C(=O)NCC(=O)N[C@@H](CC(C)C)C(=O)N[C@@H](C)C(=O)N[C@@H](CC(C)C)C(=O)N[C@H](C(=O)N[C@@H](CCCNC(=N)N)C(=O)N[C@@H](CCCNC(=N)N)C(=O)O)C(C)C [Peptide P2] (H-RGLGLALVRRPRGLGLALVRR-OH), the MIC ([1]; KEIO WT) was 12 µg/mL (≈ 5.22 µM), the MIC ([1]; Δ Clp A) was 12 µg/mL (≈ 5.22 µM) and the MIC ([1]; Δ Clp B) was 12 µg/mL (≈ 5.22 µM). For the same compound, the MIC ([1]; Δ Clp P) was 12 µg/mL (≈ 5.22 µM), the MIC ([1]; Δ Clp S) was 12 µg/mL (≈ 5.22 µM) and the MIC ([1]; Δ Clp X) was 12 µg/mL (≈ 5.22 µM). The MIC ([1]; Δ Dan J) was 12 µg/mL (≈ 5.22 µM), the MIC ([1]; Δ Dan K) was 6 µg/mL (≈ 2.61 µM) and the MIC ([1]; Δ gro L) was 12 µg/mL (≈ 5.22 µM). The MIC ([1]; Δ htp G) was 12 µg/mL (≈ 5.22 µM), the MIC (E. coli O157) was 6 µg/mL (≈ 2.61 µM) and the MIC (Acinetobacter baumanii) was 6 µg/mL (≈ 2.61 µM). For the same compound, the MIC [2] was 5 µg/mL (≈ 2.17 µM), the MIC [3] was 50 µg/mL (≈ 21.7 µM) and the MIC [4] was 50 µg/mL (≈ 21.7 µM). For the same compound, the MIC (Neisseria) was 50 µg/mL (≈ 21.7 µM), the MIC (Pseudomonas aeruginosa) was 200 µg/mL (≈ 87 µM) and the MIC [5] was 200 µg/mL (≈ 87 µM). For the same compound, the “peptide remaining in solution” value [6] was “less than 60%” and the “toxicity towards mammalian cells” value (HeLa cells) was “little or no toxicity towards mammalian cells”.
